This is an account of results in US20080262079A1, “Cannabinoid Compositions and Methods of Use Thereof” (priority 2004, published 2008).

A short description of data set [1]: THC levels in blood serum of THC-treated mice (gas chromatography/mass spectrometry). The class given is in vivo, mouse. The note with it: apoE−/− mice, THC 1 mg/kg per day orally. The procedure:
(§1) Reagents: Synthetic delta-9-THC Marinol® (Dronanbinol, Unimed Pharmaceuticals, Inc.; Marietta Ga., USA) was dissolved at 0.1 mg/ml in 5.5.% fat milk (w/v) in water. THC (1 mg/kg per day) in 1.5% fat milk (w/v) was administered orally within drinking water. Delta-9-THC for in vitro experiments was purchased as a stock solution of 1 mg/ml in methanol (Cambridge Isotype Laboratories, Andover Mass., USA) and were further diluted in warm medium immediately before use. For in vitro transmigration assays, all experiments were performed by adding corresponding dilutions of the THC vehicle (methanol) to the non-THC-treated controls.

The test system of data set [2] is apolipoprotein E−/− (apoE−/−) mouse model of atherosclerosis. Put plainly: Atherosclerotic lesion size quantification in apoE−/− mice on high cholesterol diet (Sudan IV staining). The format is in vivo. Conditions: 11 weeks high cholesterol diet, THC 1 mg/kg daily orally during last 6 weeks, vs control mice. The procedure: as §1
Atherosclerotic lesion size quantification: Atherosclerotic lesions within the thoraco-abdominal aorta and aortic roots were analyzed by Sudan IV staining for lipid deposition. Quantification was performed by computer image analysis using the MetaMorph6 software (Zeiss, Feldbach, Switzerland) as previously described. (Kwak et al., Circulation 107, 1033-9 (2003)).

The nature of data set [3]: Blood analysis (cholesterol, triglyceride), body weight and tolerability in THC-treated apoE−/− mice. Here is the method: The anti-atherosclerotic potential of THC was tested in the apolipoprotein E^−/− (apoE^−/−) mouse model of atherosclerosis. The studies presented herein utilized delta-9-Tetrahydrocannoabinol (THC), the major component of marijuana, as its immune-modulating effects have been well-documented in several studies. (See e.g., Srivastava, Immuopharmacology 40, 179-85 (1998); Zhu, J Immunol 165, 373-80 (2000); Yuan J Neuroimmunol 133, 124-31 (2002); Lyman, J Neuroimmunol 23, 73-81 (1989); Malfait, Proc Natl Acad Sci USA 97, 9561-6 (2000)). In addition, this compound is already commercially available, for example as an anti-vomiting drug or for use in treating anorexia. Since potential novel anti-inflammatory therapies should be well tolerated and preferably devoid of psychotropic effects, a low dosage of THC (e.g., 1 mg/kg) was used for daily oral administration. […] (Chesher, et al., Pharmacol Biochem Behav 35:861-4 (1990); Brenneisen, et al., Int J Clin Pharmacol Ther 34, 446-52 (1996); Chan, et al., Fundam Appl Toxicol 30, 109-17 (1996)) To test the therapeutic effect of THC on established atherosclerosis, apoE^−/− mice were fed with a high cholesterol diet for 5 weeks, and THC was then administered during the following 6 weeks, while maintaining the cholesterol diet.
Animals: As a model of in vivo atherosclerosis, 10-week old male apolipoprotein E^−/− mice (apoE^−/−) C57BL/6 mice were used. For histological and atherosclerotic plaque development analysis, mice were fed with a high cholesterol diet (1.25% cholesterol, 0% cholate; Research Diets, New Brunswick N.J., USA) for 5 weeks or for 11 weeks (n=6 per group). THC was administered during the last 6 weeks of the 11 week diet group. In parallel, control mice (littermates) received milk without THC (n =8). For proliferation and cytokine analysis, littermate apoE^−/− mice were divided into 2 groups (control, THC; n=6 per group) and fed with a high cholesterol diet for 4 weeks. THC or milk only was administered during the last 2 weeks of diet. All animal studies were approved by the local Ethical Committee.
Blood Analysis: For measurements of cholesterol and triglyceride content, blood samples were collected at the beginning and the end of the diet. HDL and VLDL cholesterol fractions of sera were measured by fast protein lipid chromatography. THC levels in blood (after 2, 4 and 6 weeks of treatment) were measured by gas chromatography/mass spectrometry with a limit of detection of […] as previously described. (Giroud, et al. Forensic Sci Int 123, 159-64 (2001)).

The subject of data set [4] is splenocytes. Put plainly: Proliferation assay (MTS) of conA-stimulated splenocytes isolated from THC-treated mice. The format is cell-based, mouse. Conditions: cells from THC-treated vs untreated apoE−/− mice, conA 72 hours. Here is the method:
Proliferation Assay: Splenocytes (SC) or lymph node cells (LNC) were isolated from THC- or milk-treated mice and cultured in 96-well plates at a concentration of 5×10^6 cells/ml. Culture medium consisted of RPMI 1640 supplemented with 25 mM HEPES buffer, 2 mM L-glutamine, 100 U/ml penicillin, 0.1 mg/ml streptomycin, and 10% heat-inactivated fetal bovine serum (FBS). Cells were stimulated in triplicates with varying concentrations of concanavalin (con A; Sigma). After 72 hours, cell proliferation was determined using a non-radioactive MTS cell proliferation assay (Promega) according to the manufacturer's guidelines.

For data set [5], the system named is Th1 (IFN-γ, IL-12) and Th2 (IL-4, IL-10) cytokines, TGF-β. The data set is described as follows: Cytokine analysis by ELISA in culture supernatants of conA-stimulated lymphoid cells from THC-treated mice. The class given is cell-based, mouse.
The subject of data set [6] is thioglycollate-elicited peritoneal macrophages from apoE−/− mice. The data set is described as follows: Transmigration assay: chemo-attraction of peritoneal macrophages to MCP-1. The class given is cell-based, mouse. The note with it: THC 0.6 ng/ml, 4 hours with 1 ng/ml mIFN-γ, 1 nM MCP-1, 90 minutes. From the text: Early processes of atherosclerosis involve endothelial dysfunction in response to cardiovascular risk factors, which triggers the recruitment of leukocytes (monocytes/macrophages and T lymphocytes) into the vessel wall. The studies described herein address whether treatment with THC inhibited cell migration using a functional in vitro experiment. Thioglycollate-stimulated peritoneal mouse macrophages were isolated from apoE^−/− mice and assayed for their migration capacity by chemo-attraction to MCP-1.
Reagents: Synthetic delta-9-THC Marinol® (Dronanbinol, Unimed Pharmaceuticals, Inc.; Marietta Ga., USA) was dissolved at 0.1 mg/ml in 5.5.% fat milk (w/v) in water. THC (1 mg/kg per day) in 1.5% fat milk (w/v) was administered orally within drinking water. Delta-9-THC for in vitro experiments was purchased as a stock solution of 1 mg/ml in methanol (Cambridge Isotype Laboratories, Andover Mass., USA) and were further diluted in warm medium immediately before use. […]
Transmigration assay: Macrophages from the peritoneal cavity of thioglycollate-injected apoE^−/− mice were isolated 4 days post-injection and stimulated (in triplicates) for 4 hours with 1 ng/ml mIFN-γ in the presence or absence of 0.6 ng/ml THC (n=4 mice). […] Following 90 minutes of incubation, the number of migrated cells was determined by counting (blind observers) 10 microscopic fields per well.

The subject of data set [7] is murine collagen-induced arthritis, a mouse model of rheumatoid arthritis. Conditions: cited from earlier work.
Where [8] appears, read: THC 1 mg/kg per day orally, apoE−/− mice.
Setting [9] is: THC-treated vs control apoE−/− mice.
The mark [10] stands for this setting: THC-treated vs untreated mice, conA 2 μg/ml, supernatant 48 hours, ELISA.

In the case of `CCCCCc1cc(O)c2c(c1)OC(C)(C)C1CCC(C)=CC21` (centres unmarked) [THC, delta-9-tetrahydrocannabinol], the “THC concentration in blood serum” value in data set [1] is 0.6 ng/mL. Further, the “progression of atherosclerotic lesions within the aortic roots” value in data set [2] is on record as “significantly reduced progression of atherosclerotic lesions”. In data set [3] (setting [8]), the deaths during treatment result is “None of the THC-treated mice died during treatment” and the unhealthy behavior entry was “none showed unhealthy behavior”. Moreover, in data set [3] (setting [9]), the body weights entry is “No differences”, the serum cholesterol levels entry was “No differences” and the serum triglyceride levels result is “No differences”. In addition, the “proliferative responses of in vitro stimulated splenocytes” value in data set [4] is “significantly reduced”. The IL-4 expression result in data set [5] (THC-treated mice, conA-stimulated cells, ELISA) is “neither expression of IL-4 nor IL-12 was detectable”. In data set [5] (THC-treated mice, conA-stimulated cells, supernatant 48 hours, ELISA), the IL-12 expression entry is “neither expression of IL-4 nor IL-12 was detectable”. Further, the “Th1/Th2 balance (ratio of IFN-γ to IL-10 concentration)” value in data set [5] (THC-treated vs untreated mice) was “shift of the Th1/Th2 balance”. For the same compound, in data set [5] (setting [10]), the IFN-γ production result was “significantly less” and the TGF-β production result is given as “modest, but not significant, downregulation”. The IL-10 production result in data set [5] (THC-treated vs untreated mice, conA 2 μg/ml, supernatant 72 hours, ELISA) was “modest, but not significant, downregulation”. Moreover, the migration of macrophages entry in data set [6] was “significantly inhibited”.
In the case of `C=C(C)[C@@H]1CCC(C)=C[C@H]1c1c(O)cc(CCCCC)cc1O` [cannabidiol], the “proliferation and IFN-γ production of lymph node cells from treated mice (Th1 responses)” value in data set [7] (collagen-induced arthritis mice) is “reduced”. Besides, in data set [7] (mouse model of rheumatoid arthritis), the “chronic inflammation in collagen-induced arthritis” value is given as “ameliorated chronic inflammation”.
